How the values were obtained:
[1] = target: T1, human vitamin D binding protein (DBP) (Homo sapiens, UniProt P02774); assay: Affinity to vitamin D binding protein (competition with 3H-1α,25-DHCC); conditions: DBP purified from total human serum; 10^-11 to 2.5×10^-6 M; compared to 1α,25-DHCC; FIG. 1
T1 construct: pooled Gc allotypes not specified
T1 sequence (P02774 17-474): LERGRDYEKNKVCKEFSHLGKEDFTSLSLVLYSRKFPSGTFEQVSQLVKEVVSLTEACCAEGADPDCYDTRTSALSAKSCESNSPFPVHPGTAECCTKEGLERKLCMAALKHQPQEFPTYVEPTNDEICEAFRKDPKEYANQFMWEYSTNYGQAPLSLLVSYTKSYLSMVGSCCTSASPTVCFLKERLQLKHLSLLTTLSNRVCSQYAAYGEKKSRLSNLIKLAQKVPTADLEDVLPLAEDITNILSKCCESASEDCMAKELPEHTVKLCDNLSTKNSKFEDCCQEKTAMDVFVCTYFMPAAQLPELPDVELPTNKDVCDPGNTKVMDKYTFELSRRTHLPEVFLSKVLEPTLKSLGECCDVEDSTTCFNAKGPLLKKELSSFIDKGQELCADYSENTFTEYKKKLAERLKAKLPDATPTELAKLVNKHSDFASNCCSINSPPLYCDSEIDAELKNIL
Excerpt: Affinity to vitamin D binding protein.
Vitamin D binding protein (DBP) is the specific carrier for vitamin D and its metabolites in blood. The biological activity of vitamin D compounds depends on their binding to DBP, because strong binding to DBP will reduce the intracellular access to the VDR. Binding to the DBP may also influence the half-life of the vitamin D derivatives in circulation. Weak binders are rapidly metabolized, which is a favourable aspect in topical application.
In the assay, DBP is incubated with ^3 H-1α,25-DHCC and 1α,25-DHCC or with several vitamin D compounds according to the invention. To this purpose, the vitamin compounds are dissolved in ethanol in concentrations ranging from 10^-11 to 2.5×10^-6 M. The percentage bound/unbound ^3 H-1α,25-DHCC is then calculated. DBP is purified from total human serum. The results are shown in the appended FIG. 1. […] [^3 H]1α,25(OH)2 D3 =^3 H-1α,25-DHCC; in the Figure .cndot.=1α,25-DHCC (known compound); .quadrature.=compound 21; Δ=compound 28; o=compound 32 and .diamond.=compound 36.

[2] = target: T2, calf thymus intracellular vitamin D receptor (VDR) (Bos taurus, UniProt Q28037); assay: Affinity to intracellular vitamin D receptor (displacement of 3H-1α,25-DHCC); format: binding; conditions: 10^-13 to 10^-7 M, compared with 1α,25-dihydroxycholecalciferol
T2 sequence (Q28037 1-426): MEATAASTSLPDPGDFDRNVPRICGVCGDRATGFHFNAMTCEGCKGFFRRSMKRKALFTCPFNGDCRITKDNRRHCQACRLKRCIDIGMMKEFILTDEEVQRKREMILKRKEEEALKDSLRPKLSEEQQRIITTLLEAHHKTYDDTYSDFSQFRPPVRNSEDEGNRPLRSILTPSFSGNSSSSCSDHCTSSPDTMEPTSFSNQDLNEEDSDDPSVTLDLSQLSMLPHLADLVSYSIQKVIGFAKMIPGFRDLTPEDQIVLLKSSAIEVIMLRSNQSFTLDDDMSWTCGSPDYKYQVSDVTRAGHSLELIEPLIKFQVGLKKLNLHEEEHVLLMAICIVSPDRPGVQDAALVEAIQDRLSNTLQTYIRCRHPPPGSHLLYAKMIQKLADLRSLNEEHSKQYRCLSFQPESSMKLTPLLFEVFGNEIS
Excerpt: Affinity to intracellular vitamin D receptor.
In this assay, ^3 H-1α,25-dihydroxycholecalciferol (^3 H-1α,25-DHCC), which is specifically bound to the VDR, is replaced by the tested compounds. […] A high VDR-affinity is indicative for a biologically active substance. The tested compounds 21 and 28 have moderate VDR-affinities, whereas tested compound 36 has a weak VDR-affinity.

[3] = tested on: human leukemic cell line HL-60; assay: Cell differentiation in HL-60 assay (NBT reduction); format: cell-based; conditions: for concentration of optimum differentiating effect / NBT-reduction inducing capacity relative to the known 1α,25-DHCC: HL-60 cells; for concentration of optimum differentiating effect / induction of differentiation and maturation of HL-60 cells: NBT reduction; for NBT-reduction inducing capacity relative to the known 1α,25-DHCC: FIGS. 2 and 3, potency ratio versus 1α,25-DHCC; for induction of differentiation and maturation of HL-60 cells: 10^-12 to 10^-6 M
Protocol: Vitamin D compounds according to the invention are dissolved in ethanol in concentrations ranging from 10^-12 to 10^-6 M and tested for their capacity to induce cell differentiation in a HL-60 assay. In this assay, biochemical examination of the human leukemic cell line HL-60 is done, in order to establish whether cell differentiation has taken place.
Differentiation is expressed as the maturation parameter nitroblue tetrazolium (NBT) reduction. After culturing with the known 1α,25-DHCC or with vitamin D compounds of the invention, the percentage of cells containing black formazan deposits is determined. An increase in the percentage of NBT reducing cells indicates an increase in cell differentiation.

| binding to the DBP [1] | VDR-affinity [2] | SMILES | concentration of optimum differentiating effect [3] | NBT-reduction inducing capacity relative to the known 1α,25-DHCC [3] | induction of differentiation and maturation of HL-60 cells [3] |
| --- | --- | --- | --- | --- | --- |
| rather weakly | weak | C=C1/C(=C\C=C2/CCC[C@@]3(C)[C@H]2CC[C@@]32C[C@H]2CCCC(C)(C)O)C[C@@H](O)C[C@@H]1O [compound 36] | 10^-8 to 10^-7 M | about 10 times | induce differentiation and maturation |
| rather weakly | high | C=C1/C(=C\C=C2/CCC[C@@]3(C)[C@H]2CC[C@@]32C[C@@H]2CCCC(C)(C)O)C[C@@H](O)C[C@@H]1O [compound 32] | 10^-8 to 10^-7 M | 3-5 times | induce differentiation and maturation |

Further lines, the compound ahead of its results:

| SMILES | binding to the DBP [1] | VDR-affinity [2] | concentration of optimum differentiating effect [3] | NBT-reduction inducing capacity relative to the known 1α,25-DHCC [3] | induction of differentiation and maturation of HL-60 cells [3] |
| --- | --- | --- | --- | --- | --- |
| C=C1/C(=C\C=C2/CCC[C@]3(C)/C(=C/CCCC(C)(C)O)CC[C@@H]23)C[C@@H](O)C[C@@H]1O [compound 28] | rather weakly | moderate | 10^-8 to 10^-7 M | as potent as the known 1α,25-DHCC | induce differentiation and maturation |
| C=C1/C(=C\C=C2/CCC[C@]3(C)/C(=C\CCCC(C)(C)O)CC[C@@H]23)C[C@@H](O)C[C@@H]1O [compound 21] | rather weakly | moderate | 10^-8 to 10^-7 M | 3-5 times | induce differentiation and maturation |
| C=C1/C(=C\C=C2/CCC[C@]3(C)[C@@H]([C@H](C)CCCC(C)(C)O)CC[C@@H]23)C[C@@H](O)C[C@@H]1O [1α,25-DHCC, 1α,25-dihydroxycholecalciferol, reference compound] |  |  | 10^-8 to 10^-7 M |  | induce differentiation and maturation |
